# From patent US5112806A, “Antibiotic, mersacidin, a process for the preparation thereof and the use thereof as a pharmaceutical” (Hoechst Aktiengesellschaft, priority 1988, dated 1992)
# Like-named read-outs stand apart in the source and are kept apart here.
# What was measured:
# [1] = system: Streptococcus pyogenes A 77; assay: In vivo activity against Streptococcus pyogenes A 77 infection in mice; conditions: Streptococcus pyogenes A 77, 3,8 × 10^3 CFU/mouse
# Description: (§1) In vivo activity of potassium mersacidin against S. aureus
# (§2) and Streptococcus pyogenes A 77 infection in mice
# [2] = system: S. epidermidis 823; assay: MIC, growth inhibition in vitro; assay type: cell-based; conditions: Table 5
# [3] = system: S. aureus SG 511; assay: In vivo activity against S. aureus SG 511 infection in mice
# Procedure: On subcutaneous administration in a dose of 9.37 and 25.00 mg/kg to laboratory mice infected experimentally with Staphylococcus aureus SG 511 and S. aureus 710 (resistant to methicillin), […].
# In vivo activity of mersacidin against S. aureus SG 511
# infection in mice compared with vancomycin.
# Inoculation medium used: 1.75 × 10^9 CFU/mouse
# [4] = system: S. epidermidis 32965; assay: MIC, growth inhibition in vitro; assay type: cell-based; conditions: Table 5
# [5] = system: S. aureus E 710 (MRSA); assay: In vivo activity against S. aureus E 710 (MRSA) in mice
# Procedure: On subcutaneous administration in a dose of 9.37 and 25.00 mg/kg to laboratory mice infected experimentally with Staphylococcus aureus SG 511 and S. aureus 710 (resistant to methicillin), […]. […]
# [6] = system: S. aureus R 85; assay: MIC, growth inhibition in vitro; assay type: cell-based
# Description: (§3) The biological properties of mersacidin as the MIC values required for inhibition of the growth of various microorganisms are listed in Table 3.
# [7] = system: S. aureus 710; assay: MIC, growth inhibition in vitro; assay type: cell-based
# Description: as §3
# [8] = system: Staphylococcus aureus 209P; assay: MIC, growth inhibition in vitro; assay type: cell-based
# Description: as §3
# [9] = system: S. aureus 3066; assay: MIC, growth inhibition in vitro; assay type: cell-based
# Description: as §3
# [10] = system: S. aureus 25923; assay: MIC, growth inhibition in vitro; assay type: cell-based; conditions: Table 5
# [11] = system: S. haemolyticus 809; assay: MIC, growth inhibition in vitro; assay type: cell-based; conditions: Table 5
# [12] = system: S. aureus C 31153; assay: In vivo activity against S. aureus C 31153 infection in mice; conditions: S. aureus C 31153 (Methicillin & Caphalexin resistant), 2 × 10^9 CFU/mouse
# Description: as §1, §2
# [13] = system: Streptococcus faecalis 29212; assay: MIC, growth inhibition in vitro; assay type: cell-based; conditions: Table 5
# [14] = physchem; conditions: water
# Procedure: These salts can be prepared by the treatment of mersacidin with 1.0 equivalent of the corresponding alkali metal hydroxide in the presence of pyridine. For example, mersacidin (50 mg) was dissolved in 1 ml of pyridine, the solution cooled to 0° C. and a solution of 1.683 mg of KOH in 3 ml of distilled water was added under stirring.
# [15] = system: Streptococcus faecalis 21777; assay: MIC, growth inhibition in vitro; assay type: cell-based; conditions: Table 5
# [16] = system: S. haemolyticus 712; assay: MIC, growth inhibition in vitro; assay type: cell-based; conditions: Table 5
# [17] = system: Streptococcus hominis ML 22; assay: MIC, growth inhibition in vitro; assay type: cell-based; conditions: Table 5
# [18] = Animal mortality after subcutaneous dose; assay type: in vivo; conditions: laboratory mice; 500 mg/kg subcutaneous, highest concentration tested
# [19] = system: S. aureus SG 511; assay: In vivo activity against S. aureus SG 511 abscess in rats; conditions: infecting dose 2 × 10^-9 CFU in 5% mucin under the skin, 50 mg/kg × 7 days
# Procedure: In vivo activity of mersacidin against S. aureus SG 511 abscess in rats, compared with vancomycin.
# Infecting dose : […] in 5% mucin, injected under the skin.
# Treatment: 50 mg/kg × 7 days
# [20] = system: Streptococcus faecalis; assay: MIC, growth inhibition in vitro (second entry, no. 27); assay type: cell-based; conditions: Streptococcus faecalis (Table 3 no. 27)
# Description: as §3
# [21] = system: Streptococcus viridans; assay: MIC, growth inhibition in vitro; assay type: cell-based
# Description: as §3
# [22] = system: S. aureus 20240; assay: MIC, growth inhibition in vitro; assay type: cell-based
# Description: as §3
# [23] = system: Bacillus subtilis; assay: MIC, growth inhibition in vitro; assay type: cell-based
# Description: as §3
# [24] = system: S. aureus 20666; assay: MIC, growth inhibition in vitro; assay type: cell-based
# Description: as §3
# [25] = system: Listeria monocyctogenes; assay: MIC, growth inhibition in vitro; assay type: cell-based
# Description: as §3
# [26] = system: Propionibacterium genes; assay: MIC, growth inhibition in vitro; assay type: cell-based
# Description: as §3
# [27] = system: Staphylococcus aureus SG 511; assay: MIC, growth inhibition in vitro; assay type: cell-based
# Description: as §3
# [28] = system: S. aureus 789; assay: MIC, growth inhibition in vitro; assay type: cell-based
# Description: as §3
# [29] = system: Group G Streptococci; assay: MIC, growth inhibition in vitro; assay type: cell-based
# Description: as §3
# [30] = system: Streptococcus pneumoniae; assay: MIC, growth inhibition in vitro; assay type: cell-based
# Description: as §3
# [31] = system: Group B Streptococci; assay: MIC, growth inhibition in vitro; assay type: cell-based
# Description: as §3
# [32] = system: Str. D 21777; assay: MIC, growth inhibition in vitro; assay type: cell-based
# Description: as §3
# [33] = system: Peptostreptococci species; assay: MIC, growth inhibition in vitro; assay type: cell-based
# Description: as §3
# [34] = system: Group A Streptococci; assay: MIC, growth inhibition in vitro; assay type: cell-based
# Description: as §3
# [35] = system: S. aureus 285; assay: MIC, growth inhibition in vitro; assay type: cell-based
# Description: as §3
# [36] = system: Group C Streptococci; assay: MIC, growth inhibition in vitro; assay type: cell-based
# Description: as §3
# [37] = system: S. epidermidis MRSE; assay: MIC, growth inhibition in vitro; assay type: cell-based
# Description: as §3
# [38] = system: Streptococcus bovis; assay: MIC, growth inhibition in vitro; assay type: cell-based
# Description: as §3
# [39] = system: S. aureus E 88; assay: MIC, growth inhibition in vitro; assay type: cell-based
# Description: as §3
# [40] = system: S. epidermidis MSSE; assay: MIC, growth inhibition in vitro; assay type: cell-based
# Description: as §3
# [41] = system: Micrococcus luteus; assay: MIC, growth inhibition in vitro; assay type: cell-based
# Description: as §3
# [42] = system: S. aureus 20424; assay: MIC, growth inhibition in vitro; assay type: cell-based
# Description: as §3
# [43] = system: S. aureus 503; assay: MIC, growth inhibition in vitro; assay type: cell-based
# Description: as §3
# [44] = system: S. aureus 722; assay: MIC, growth inhibition in vitro; assay type: cell-based
# Description: as §3
# [45] = system: Streptococcus faecalis; assay: MIC, growth inhibition in vitro; assay type: cell-based; conditions: Streptococcus faecalis (Table 3 no. 17)
# Description: as §3
# [46] = system: S. aureus E 712; assay: MIC, growth inhibition in vitro; assay type: cell-based
# Description: as §3
# [47] = system: Cornybacterium JK; assay: MIC, growth inhibition in vitro; assay type: cell-based
# Description: as §3
# [48] = system: S. aureus SG 511; assay: In vivo activity against S. aureus SG 511 infection in mice; remark: listed apart in the source
# [49] = S. aureus SG 511, 1.75 × 10^9 CFU/mouse, 9.37 mg/kg × 3, s.c.
# [50] = S. aureus E 710 (MRSA), 5 × 10^9 CFU/mouse (1 MLD), 6.25 mg/kg × 3, s.c.
# [51] = S. aureus E 710 (MRSA), 5 × 10^9 CFU/mouse (1 MLD), 9.37 mg/kg × 3, s.c.
# [52] = S. aureus E 710 (MRSA), 5 × 10^9 CFU/mouse (1 MLD), 12.50 mg/kg × 3, s.c.
# [53] = S. aureus E 710 (MRSA), 5 × 10^9 CFU/mouse (1 MLD), 25.00 mg/kg × 3, s.c.
# [54] = S. aureus E 710 (MRSA), 5 × 10^9 CFU/mouse (1 MLD), s.c.
# [55] = mice, S. aureus SG 511, 1.75 × 10^9 CFU/mouse, 0.80 mg/kg × 3, s.c.
# [56] = mice, S. aureus SG 511, 1.75 × 10^9 CFU/mouse, 1.60 mg/kg × 3, s.c.
# [57] = mice, S. aureus SG 511, 1.75 × 10^9 CFU/mouse, 3.12 mg/kg × 3, s.c.
# [58] = mice, S. aureus SG 511, 1.75 × 10^9 CFU/mouse, 6.25 mg/kg × 3, s.c.
molecule,measurement,setting,value
C=C1NC(=O)[C@@H]2NC(=O)[C@H](CC(C)C)NC(=O)[C@H](NC(=O)[C@@H]3CS[C@@H](C)[C@@H](NC(=O)[C@H](Cc4ccccc4)NC(=O)[C@@H]4NC(=O)[C@@H](N)CS[C@H]4C)C(=O)N[C@@H](CC(C)C)C(=O)N4CCC[C@H]4C(=O)NCC(=O)NCC(=O)NCC(=O)NCC(=O)N[C@@H](C(C)C)C(=O)N3)[C@H](C)SC[C@H](NC(=O)[C@H](CCC(=O)O)NC1=O)C(=O)N[C@@H]([C@@H](C)CC)C(=O)N/C=C\S[C@H]2C [potassium mersacidin],50% Effective Dose (ED50),[1],"0,46 mg/kg × 3, s.c."
same,MIC values,[2],50 µg/mL
same,50% Effective Dose (ED50),"[3]; S. aureus SG 511 (Methicillin sensitive), 1,75 × 10^9 CFU/mouse","2,85 mg/kg × 3, s.c."
same,MIC values,[4],6 µg/mL
same,50% Effective Dose (ED50),"[5]; S. aureus E 710 (Methicillin resistant), 1 × 10^10 CFU/mouse","6,72 mg/kg × 3, s.c."
same,MIC values,[6]; Table 5,2 µg/mL
same,MIC values,[7]; Table 5,1 µg/mL
same,MIC values,[8]; Table 5,2 µg/mL
same,MIC values,[9]; Table 5,10 µg/mL
same,MIC values,[10],8 µg/mL
same,MIC values,[11],4 µg/mL
same,50% Effective Dose (ED50),[12],"15,35 mg/kg × 3, s.c."
same,MIC values,[13],15 µg/mL
same,solubility,[14],≥ 160 mg/mL
same,MIC values,[15],15 µg/mL
same,MIC values,[16],10 µg/mL
same,MIC values,[17],10 µg/mL
mersacidin,Number of mice treated/cured,[3]; [49],53/53
same,percentage rate of cure,[3]; [49],100%
same,Approx. ED50,"[3]; S. aureus SG 511, 1.75 × 10^9 CFU/mouse, s.c.",~2.59 mg/kg × 3
same,animal mortality,[18],no animal mortality was observed
same,reduces bacterial counts by,[19],1.4 log10 CFU/ml
same,MIC values,[20],"64,0 μg/ml"
same,Number of mice treated/cured,[5]; [50],1/10
same,percentage rate of cure,[5]; [50],10%
same,Number of mice treated/cured,[5]; [51],4/10
same,percentage rate of cure,[5]; [51],40%
same,Number of mice treated/cured,[5]; [52],10/16
same,percentage rate of cure,[5]; [52],63%
same,Number of mice treated/cured,[5]; [53],12/12
same,percentage rate of cure,[5]; [53],100%
same,Approx. ED50,[5]; [54],~10.81 mg/kg × 3
same,Approx. ED90,[5]; [54],~19.59 mg/kg × 3
same,MIC values,[21],"0,5-32,0 μg/ml"
same,MIC values,[22],3.12 to 6.25 µg/mL
same,MIC values,[23],"0,39-0,78 μg/ml"
same,MIC values,[24],"3,12-6,25 μg/ml"
same,MIC values,[25],"16,0-64,0 μg/ml"
same,MIC values,[26],"1,0-16,0 μg/ml"
same,MIC values,[27],"0,39-0,78 μg/ml"
same,MIC values,[28],0.78 to 1.56 µg/mL
same,MIC values,[29],"2,0-8,0 μg/ml"
same,MIC values,[30],"1,0-4,0 μg/ml"
same,MIC values,[31],"1,0-8,0 μg/ml"
same,MIC values,[32],"1,56-3,12 μg/ml"
same,MIC values,[33],"0,5-8,0 μg/ml"
same,MIC values,[34],"0,5-8,0 μg/ml"
same,MIC values,[35],"0,78-1,56 μg/ml"
same,MIC values,[6],"0,39-0,78 μg/ml"
same,MIC values,[36],"2,0-64 μg/ml"
same,MIC values,[7],"0,39-0,78 μg/ml"
same,MIC values,[37],"0,5-16,0 μg/ml"
same,MIC values,[38],"4,0-32,0 μg/ml"
same,MIC values,[39],6.25 to 12.50 µg/mL
same,MIC values,[40],"0,5-16,0 μg/ml"
same,MIC values,[41],"0,0975-0,195 μg/ml"
same,MIC values,[42],1.56 to 3.12 µg/mL
same,MIC values,[43],0.78 to 1.56 µg/mL
same,MIC values,[44],3.12 to 6.25 µg/mL
same,MIC values,[45],"0,0975-0,195 μg/ml"
same,MIC values,[8],0.78 to 1.56 µg/mL
same,MIC values,[46],"3,12-6,25 μg/ml"
same,MIC values,[9],12.50 to 25.00 µg/mL
same,MIC values,[47],"2,0-4,0 μg/ml"
same,activity in the in vivo system of laboratory mice,"[48]; mice infected with S. aureus SG 511 and S. aureus 710 (resistant to methicillin), 9.37 and 25.00 mg/kg s.c.",good activity
same,Number of mice treated/cured,[48]; [55],0/27
same,percentage rate of cure,[48]; [55],0%
same,Number of mice treated/cured,[48]; [56],3/24
same,percentage rate of cure,[48]; [56],12%
same,Number of mice treated/cured,[48]; [57],18/27
same,percentage rate of cure,[48]; [57],67%
same,Number of mice treated/cured,[48]; [58],38/40
same,percentage rate of cure,[48]; [58],95%
same,Approx. ED90,"[48]; mice, S. aureus SG 511, 1.75 × 10^9 CFU/mouse, s.c.",~5.38 mg/kg × 3
